Patent publication US20260265199A1, “CRYSTALLINE FORMS OF (R)-2-AMINO-5-(4-(2-(3,5-DIFLUOROPHENYL)-2-HYDROXYACETAMIDO)-2-METHYLPHENYL)-N-ISOPROPYLNICOTINAMIDE AND METHODS FOR USING THE SAME” (HIBERCELL, INC., priority 2023, published 2026)
Structures can show the parent of a compound that is named as a salt.

Assay: Phase 1a study: pharmacokinetics after oral BID dosing in subjects with advanced solid tumors
Assay type: in vivo, human
Design: Increase in mean: scale not given here
Experimental: This example describes a first in human, Phase 1a, multi-center, open-label study to establish the maximum tolerated dose (MTD) and evaluate the safety and tolerability of oral dosing of Form A of the hemi-fumarate salt of the compound of formula (I) (Example 11) in a dose-escalating fashion. Form A of the hemi-fumarate salt was orally administered BID every day with food or within 30 minutes of completing a meal, starting at 25 mg, with doses escalating to 50, 100, 200, 400, 600, and 900 mg BID as safety allows for each 3-week treatment cycle.
Up to 36 qualified subjects at 3 to 5 US sites, who have specific tumor types of renal cell carcinoma (RCC), gastric cancer (GC), metastatic breast cancer (MBC), small cell lung cancer (SCLC), and other solid tumors (e.g., non-small cell lung cancer, colorectal cancer, carcinoma of unknown primary) with the exception of rapidly progressing neoplasms (e.g., pancreatic cancer, glioblastoma, hepatocellular carcinoma) received Form A of the hemi-fumarate salt. Every effort was made to ensure approximately 50% of all subjects enrolled were subjects with RCC and GC. The starting dose level was 25 mg twice daily (BID), escalating to 50, 100, and 200 mg BID as safety allows, following the Bayesian Optimal Interval (BOIN) design. The safety monitoring committee (SMC) evaluated the dose-limiting toxicities (DLTs) and cumulative safety and PK data at the end of each cohort. Based on the SMC recommendations after a comprehensive review of PK and safety data for 200 mg BID dose, higher dose levels were evaluated, starting with 400 mg BID. The dose escalated to 600 mg and then 900 mg following the BOIN design starting with 1 subject at each escalated dose, until the MTD was reached or the sponsor or SMC declares the dose most appropriate for clinical development. This Phase 1a will be expanded into a Phase 1b/2a study through a protocol amendment and will then assess the dose and tumor type(s) selected in Phase 1a as the most appropriate for further clinical development. Subjects were dosed until unacceptable toxicity, disease progression per immune-related Response Evaluation Criteria in Solid Tumors (iRECIST), subject withdrawal, any other administrative reasons, or after 2 years of treatment, whichever occurs first. Efficacy was assessed via Response Evaluation Criteria in Solid Tumors 1.1 (RECIST 1.1); computed tomography (CT) scans were conducted every 6 weeks. Safety, including occurrence of dose-limiting toxicities (DLTs), pharmacokinetics (PK), and biomarker parameters were also assessed.
Form A of the hemi-fumarate salt was orally administered BID with food or within 30 minutes of completing a meal, starting at 25 mg, with doses escalating to 50, 100, 200, 400, 600 and 900 mg BID as safety allowed. Up to 24 subjects were enrolled to ensure 12 subjects completed the study at the estimated MTD of Form A of the hemi-fumarate salt. Dosing occurred in 3-week cycles. Subjects spent Cycle 1/Day 1 (C1D1) in the clinic followed by an overnight stay for safety monitoring and PK sampling. Subjects were hospitalized for administration of first 3 doses: CID1 am and pm doses, and Cycle 1/Day 2 (C1D2) am dose; on Days 8, 15, and 21 the am dose was taken in the clinic after the planned PK samples. All other doses were self administered at home.
Results of Cohorts 1 to 6 the study are detailed in Tables 47-50 below.

[1] = 25 mg single oral dose, Cycle 1 Day 1, geometric mean, N = 3
[2] = 25 mg twice daily oral, Cycle 1 Day 21, geometric mean, N = 3
[3] = 50 mg single oral dose, Cycle 1 Day 1, geometric mean, N = 3
[4] = 50 mg twice daily oral, Cycle 1 Day 21, geometric mean, N = 3
[5] = 100 mg single oral dose, Cycle 1 Day 1, geometric mean, N = 4
[6] = 100 mg twice daily oral, Cycle 1 Day 21, geometric mean, N = 3
[7] = 200 mg single oral dose, Cycle 1 Day 1, geometric mean, N = 5
[8] = 200 mg twice daily oral, Cycle 1 Day 21, geometric mean, N = 4
[9] = 300 mg single oral dose, Cycle 1 Day 1, geometric mean, N = 4
[10] = 300 mg twice daily oral, Cycle 1 Day 21, point estimate, N = 1
[11] = 400 mg single oral dose, Cycle 1 Day 1, geometric mean, N = 3
[12] = 400 mg twice daily oral, Cycle 1 Day 21, geometric mean, N = 2
[13] = 600 mg single oral dose, Cycle 1 Day 1, point estimate, N = 1
[14] = 600 mg twice daily oral, Cycle 1 Day 21, point estimate, N = 1

With `Cc1cc(NC(=O)[C@H](O)c2cc(F)cc(F)c2)ccc1-c1cnc(N)c(C(=O)NC(C)C)c1` [Form A of the hemi-fumarate salt, (R)-2-amino-5-(4-(2-(3,5-difluorophenyl)-2-hydroxyacetamido)-2-methylphenyl)-N-isopropylnicotinamide] the “% AUCextrap” value [1] was 46.8%, the CL/F [1] was 11.4 L/h and the DAUC0-12 [1] was 34.0 ng·h/mL/mg. It also gave a DAUC0-last [1] of 34.0 ng·h/mL/mg, a DCmax [1] of 4.79 ng/mL/mg and a tlast (25 mg single oral dose, Cycle 1 Day 1, median, N = 3) of 12.00 h. The ARAUC [2] was 4.84, the CL/F [2] was 6.08 L/h and the Ctrough [2] was 359 ng/mL. It also gave a DAUC0-last [2] of 164 ng·h/mL/mg, a DAUC0-τ [2] of 164 ng·h/mL/mg and a DCmax [2] of 21.5 ng/mL/mg. For the same compound, the “% AUCextrap” value [3] was 51.8%, the CL/F [3] was 8.85 L/h and the DAUC0-12 [3] was 41.8 ng·h/mL/mg. For the same compound, the DAUC0-last [3] was 41.8 ng·h/mL/mg, the DCmax [3] was 4.87 ng/mL/mg and the tlast (50 mg single oral dose, Cycle 1 Day 1, median, N = 3) was 12.00 h. For the same compound, the ARAUC [4] was 4.34, the CL/F [4] was 5.51 L/h and the Ctrough [4] was 780 ng/mL. It also gave a DAUC0-last [4] of 181 ng·h/mL/mg, a DAUC0-τ [4] of 181 ng·h/mL/mg and a DCmax [4] of 19.6 ng/mL/mg. For the same compound, the Increase in mean (50 mg vs preceding dose level (25 mg), single oral dose, Cycle 1 Day 1) was 2.46, the Increase in mean (50 mg vs preceding dose level (25 mg), twice daily oral, Cycle 1 Day 21) was 2.21 and the DAUC0-12 [5] was 28.0 ng·h/mL/mg. The DAUC0-last [5] was 19.3 ng·h/mL/mg, the DCmax [5] was 3.80 ng/mL/mg and the tlast (100 mg single oral dose, Cycle 1 Day 1, median, N = 4) was 12.00 h. For the same compound, the ARAUC [6] was 4.19, the CL/F [6] was 8.53 L/h and the Ctrough [6] was 777 ng/mL. For the same compound, the DAUC0-last [6] was 117 ng·h/mL/mg, the DAUC0-τ [6] was 117 ng·h/mL/mg and the DCmax [6] was 13.1 ng/mL/mg. The Increase in mean (100 mg vs preceding dose level (50 mg), single oral dose, Cycle 1 Day 1) was 1.34, the Increase in mean (100 mg vs preceding dose level (50 mg), twice daily oral, Cycle 1 Day 21) was 1.29 and the “% AUCextrap” value [7] was 58.7%. The CL/F [7] was 11.1 L/h, the DAUC0-12 [7] was 29.0 ng·h/mL/mg and the DAUC0-last [7] was 29.0 ng·h/mL/mg. For the same compound, the DCmax [7] was 4.19 ng/mL/mg, the tlast (200 mg single oral dose, Cycle 1 Day 1, median, N = 5) was 12.00 h and the ARAUC [8] was 4.90. The CL/F [8] was 7.36 L/h, the Ctrough [8] was 1860 ng/mL and the DAUC0-last [8] was 136 ng·h/mL/mg. It also gave a DAUC0-τ [8] of 136 ng·h/mL/mg, a DCmax [8] of 14.9 ng/mL/mg and an Increase in mean (200 mg vs preceding dose level (100 mg), single oral dose, Cycle 1 Day 1) of 2.07. For the same compound, the Increase in mean (200 mg vs preceding dose level (100 mg), twice daily oral, Cycle 1 Day 21) was 2.32, the “% AUCextrap” value [9] was 30.5% and the CL/F [9] was 62.4 L/h. For the same compound, the DAUC0-12 [9] was 28.7 ng·h/mL/mg, the DAUC0-last [9] was 28.7 ng·h/mL/mg and the DCmax [9] was 3.80 ng/mL/mg. The tlast (300 mg single oral dose, Cycle 1 Day 1, median, N = 4) was 12.00 h, the ARAUC [10] was 2.87 and the CL/F [10] was 10.5 L/h. It also gave a Ctrough [10] of 1770 ng/mL, a DAUC0-last [10] of 94.8 ng·h/mL/mg and a DAUC0-τ [10] of 94.8 ng·h/mL/mg. It also gave a DCmax [10] of 10.1 ng/mL/mg, an Increase in mean (300 mg vs preceding dose level (200 mg), single oral dose, Cycle 1 Day 1) of 1.48 and an Increase in mean (300 mg vs preceding dose level (200 mg), twice daily oral, Cycle 1 Day 21) of 1.05. The “% AUCextrap” value [11] was 33.6%, the CL/F [11] was 24.5 L/h and the DAUC0-12 [11] was 9.58 ng·h/mL/mg. For the same compound, the DAUC0-last [11] was 9.58 ng·h/mL/mg, the DCmax [11] was 1.62 ng/mL/mg and the tlast (400 mg single oral dose, Cycle 1 Day 1, min-max, N = 3) was “(12.00-12.00) h”. It also gave an ARAUC [12] of 5.15, a CL/F [12] of 7.82 L/h and a Ctrough [12] of 3060 ng/mL. It also gave a DAUC0-last [12] of 77.0 ng·h/mL/mg, a DAUC0-τ [12] of 128 ng·h/mL/mg and a DCmax [12] of 9.20 ng/mL/mg. The Increase in mean (400 mg vs preceding dose level (300 mg), single oral dose, Cycle 1 Day 1) was 0.44, the Increase in mean (400 mg vs preceding dose level (300 mg), twice daily oral, Cycle 1 Day 21) was 1.80 and the DAUC0-12 [13] was 19.4 ng·h/mL/mg. It also gave a DAUC0-last [13] of 19.4 ng·h/mL/mg, a DCmax [13] of 2.43 ng/mL/mg and a tlast [13] of 12.00 h. For the same compound, the ARAUC [14] was 5.22, the CL/F [14] was 9.87 L/h and the Ctrough [14] was 5680 ng/mL. For the same compound, the DAUC0-last [14] was 101 ng·h/mL/mg, the DAUC0-τ [14] was 101 ng·h/mL/mg and the DCmax [14] was 9.98 ng/mL/mg.
